# Experimental data reported in patent US6488943B1, “Antimicrobial wipes which provide improved immediate germ reduction” (The Procter & Gamble Company, priority 1999, dated 2002).
# Test system: Vibrio fischerio
# Test: Microtox Response Test (bioluminescence of Microtox Acute Toxicity Reagent)
# Assay type: cell-based
# Details: pure anionic surfactant; EC50 for 50% decrease of bioluminescence, 5 minutes
# Procedure: Reference: Microtox Manual: A Toxicity Testing Handbook, 1992 Volume I-IV; Microbics Corporation.
# Equipment: Microtox M500 Toxicity Testing Unit; Microbics Corporation Connected to computer for data acquisition and analysis according to above reference.
# 1. Preparation of Sample Stock Solution (Standard Concentration: 1000 ppm)
# The stock solution of the test anionic surfactant sample is prepared and used as a stock solution from which all other dilutions are made. The standard “starting concentration”, the highest concentration to be tested, is 500 ppm. […]
# a) Turn on test unit and allow reagent well temperature to equilibrate at 5.5° C. and incubator block and read well temperature to equilibrate at 15° C. […]
# c) Place the assay cuvette containing reagent which corresponds to the test blank into the read well and press SET. After the cuvette has resurfaced press READ and the value will be captured by the computer.
# d) Similarly read the remaining 7 cuvettes containing reagent when prompted by the computer by pressing the READ button with the correct cuvette in the READ well.
# e) After all 8 initial reading have been taken, transfer 500 μl of the diluted test substance into their corresponding cuvette containing the reagent. […]
row,Compound,Microtox Index [ppm]
1,CCCCCCCCCCCCOS(=O)(=O)O.N [ammonium lauryl sulfate],1.0
2,ammonium laureth-3 sulfate,120
